Drawing on patent US7115632B1, “Sulfonyl aryl or heteroaryl hydroxamic acid compounds” (priority 1999, dated 2006), this text covers IC50 for 15 compounds.

Usually IC50 stands for the concentration at which inhibition is half-maximal. Read a high IC50 as weaker potency in that assay.

Each structure is given as a SMILES string. Where a name gives a salt, the structure may show the parent alone. A value given as a limit tells only on which side of the number the result lay.

Common to all, as to assay: In vitro metalloprotease inhibition, fluorogenic MCA peptide substrate
Holding throughout (format): biochemical

For one assay, the target named is T1, MMP-2 (Homo sapiens, UniProt P08253).
T1 construct: made in house; provided by Dr. Gregory Goldberg, Washington University
T1 sequence (P08253 110-660): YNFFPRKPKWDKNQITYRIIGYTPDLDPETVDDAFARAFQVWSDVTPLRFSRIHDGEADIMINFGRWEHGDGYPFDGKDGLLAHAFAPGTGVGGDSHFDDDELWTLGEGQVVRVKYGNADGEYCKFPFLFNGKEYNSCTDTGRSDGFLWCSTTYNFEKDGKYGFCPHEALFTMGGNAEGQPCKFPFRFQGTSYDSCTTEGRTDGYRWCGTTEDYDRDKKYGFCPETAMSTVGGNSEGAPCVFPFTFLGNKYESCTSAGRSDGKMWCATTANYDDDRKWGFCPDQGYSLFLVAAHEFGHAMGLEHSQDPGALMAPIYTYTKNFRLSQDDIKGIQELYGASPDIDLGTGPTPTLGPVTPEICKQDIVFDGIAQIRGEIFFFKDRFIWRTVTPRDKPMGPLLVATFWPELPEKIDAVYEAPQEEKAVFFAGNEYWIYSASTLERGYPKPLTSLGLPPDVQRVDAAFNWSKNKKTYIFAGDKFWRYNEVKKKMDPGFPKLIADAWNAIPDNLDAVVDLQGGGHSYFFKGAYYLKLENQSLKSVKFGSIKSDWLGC

A further assay concerns the target T2, MMP-13 (Homo sapiens, UniProt P45452).
T2 construct: made in house; host or cells: insect cells, baculovirus expression

For a further assay, the target named is T3, MMP-1 (Homo sapiens, UniProt P03956).
T3 construct: made in house; host or cells: transfected HT-1080 cells (provided by Dr. Harold Welgus, Washington University)
T3 sequence (P03956 100-469): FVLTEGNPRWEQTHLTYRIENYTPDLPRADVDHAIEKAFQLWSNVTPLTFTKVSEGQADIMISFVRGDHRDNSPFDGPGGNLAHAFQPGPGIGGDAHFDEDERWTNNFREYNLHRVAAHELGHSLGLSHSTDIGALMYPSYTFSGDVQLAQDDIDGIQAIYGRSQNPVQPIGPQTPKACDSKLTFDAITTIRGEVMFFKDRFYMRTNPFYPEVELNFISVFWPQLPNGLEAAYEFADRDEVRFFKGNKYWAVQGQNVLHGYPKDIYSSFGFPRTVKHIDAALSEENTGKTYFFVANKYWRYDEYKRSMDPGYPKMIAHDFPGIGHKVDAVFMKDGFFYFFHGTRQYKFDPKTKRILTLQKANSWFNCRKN

Protocol for MMP-13: (§1) Briefly, 4-aminophenylmercuric acetate (APMA) or trypsin-activated MMPs were incubated with various concentrations of the inhibitor compound at room temperature for 5 minutes.
(§2) The expressed enzyme was purified first over a heparin agarose column and then over a chelating zinc chloride column. The proenzyme was activated by APMA for use in the assay.
(§3) MMP-1 expressed in transfected HT-1080 cells was provided by Dr. Harold Welgus of Washington University, St. Louis, Mo. The enzyme was also activated using APMA and was then purified over a hydroxamic acid column. Dr. Welgus also provided transfected HT-1080 cells that expressed MMP-9. Transfected cells that expressed MMP-2 were provided by Dr. Gregory Goldberg, also of Washington University.
(§4) The ID50 values were calculated from those values.
Protocol for MMP-2: as §1, §2, §3, §4

`COc1ccc(S(=O)(=O)N2CCC(Oc3ccc(-c4ccccc4)cc3)CC2)c(C(=O)NO)c1OC` [Example 28]: the IC50 against MMP-2 (Inhibition Table B) is 0.0004 µM; on MMP-13 (Inhibition Table B) it was 0.0018 µM; at MMP-1 (Inhibition Table B), over 10 µM.

For the compound `COCCOc1cccc(S(=O)(=O)N2CCC(Oc3ccc(C(F)(F)F)cc3)CC2)c1C(=O)NO` [Example 23, N-Hydroxy-2-(2-methoxyethoxy)-6-[[4-[4-(trifluoromethyl)phenoxy]-1-piperidinyl]sulfonyl]benzamide], the IC50 at MMP-2 (Inhibition Table B) came to 0.001 µM; at MMP-13 (Inhibition Table B) it was 0.0043 µM. On to `O=C(NO)c1ccccc1S(=O)(=O)N1CCC(Oc2ccc(C(F)(F)F)cc2)CC1` [Example 13, N-hydroxy-2-[[4-[4-(trifluoromethyl)phenoxy]-1-piperidinyl]sulfonyl]benzamide], for which it took 0.0285 µM to reach half-maximal inhibition against MMP-13 (Inhibition Table A) (IC50). In other words, the double-digit nanomolar range. Turning to `O=C(NO)c1c(F)cccc1S(=O)(=O)N1CCC(Oc2ccc(C(F)(F)F)cc2)CC1` [Example 19, 2-Fluoro-N-hydroxy-6-[[4-[4-(trifluoromethyl)phenoxy]-1-piperidinyl]sulfonyl]benzamide], inhibition at MMP-2 (Inhibition Table A) was half-maximal at 0.005 µM (IC50). This counts as single-digit nanomolar.

As to `CCCCOc1ccc(N2CCN(S(=O)(=O)c3ccc(OC)c(OC)c3C(=O)NO)CC2)cc1C` [Example 56, 6-[[4-(4-Butoxy-3-methylphenyl)-1-piperazinyl]sulfonyl]-N-hydroxy-2,3-dimethoxybenzamide, monohydrochloride], the IC50 against MMP-2 (Inhibition Table B) is 0.009 µM; at MMP-13 (Inhibition Table B), 0.02 µM; against MMP-1 (Inhibition Table B), over 10 µM. Consider `O=C(NO)c1ccccc1S(=O)(=O)N1CCC(n2c(=O)[nH]c3ccccc32)CC1` [Example 29, 2-[[4-(2,3-Dihydro-2-oxo-1H-benzimidazol-1-yl)-1-piperidinyl]sulfonyl]-N-hydroxybenzamide], for which the IC50 is 0.37 µM against MMP-2 (Inhibition Table B), 2 µM against MMP-13 (Inhibition Table B) and over 10 µM against MMP-1 (Inhibition Table B). Consider `CC(O)(C(=O)NO)c1ccccc1S(=O)(=O)N1CCC(c2ccccc2)CC1` (stereo not shown) [Example 10], for which the figures for the IC50 at MMP-2 (Inhibition Table A) and against MMP-13 (Inhibition Table A) were 0.07 µM and 0.52 µM, respectively. Take `COc1ccc(S(=O)(=O)N2CCC(Oc3ccc(C(F)(F)F)cc3)CC2)c(C(=O)NO)c1OC` [Example 16, N-Hydroxy-2,3-dimethoxy-6-[[4-[4-(trifluoromethyl)phenoxy]-1-piperidinyl)sulfonyl]benzamide]: the figures for the IC50 against MMP-2 (Inhibition Table A) and at MMP-13 (Inhibition Table A) were 0.0024 µM and 0.0027 µM, respectively.

As to `O=C(NO)c1ccccc1S(=O)(=O)N1CCC(c2ccccc2)CC1` [Example 9, N-Hydroxy-2-[[4-(phenyl)-1-piperidinyl]sulfonyl]benzamide], the IC50 on MMP-2 (Inhibition Table A) was 0.045 µM; against MMP-13 (Inhibition Table A), 1.5 µM. Take `O=C(NO)c1ccccc1NS(=O)(=O)c1ccc(Oc2ccccc2)cc1` [Example 5, N-hydroxy-2-[[(4-phenoxyphenyl)sulfonyl]amino]benzamide]: inhibition at MMP-2 (Inhibition Table A) was half-maximal at 3.5 µM (IC50).

For `O=C(NO)c1ccccc1CS(=O)(=O)c1ccc(Oc2ccccc2)cc1` [Example 1, N-hydroxy-2-[[(4-phenoxyphenyl)sulfonyl]methyl]benzamide], the results for the IC50 against MMP-2 (Inhibition Table A) and at MMP-13 (Inhibition Table A) were 0.01 µM and 0.045 µM, respectively. For the compound `O=C(NO)c1ccccc1S(=O)(=O)N1CCN(C(=O)c2ccccc2)CC1` [Example 51, 2-[(4-Benzoyl-1-piperazinyl)sulfonyl]-N-hydroxybenzamide], the IC50 on MMP-1 (Inhibition Table B) was over 10 µM.

On to `O=C(NO)c1ccccc1S(=O)(=O)N1CCC(Oc2ccccn2)CC1` [Example 42, N-hydroxyl-2-[[4-(2-pyridinyloxy)-1-piperidinyl]sulfonyl]benzamide, monohydrochloride], for which the IC50 amounted to 0.042 µM on MMP-2 (Inhibition Table B) and 1.2 µM at MMP-13 (Inhibition Table B). On MMP-2 (Inhibition Table A), `O=C(NO)c1ccccc1S(=O)(=O)N1CCC(Oc2ccc(OC(F)(F)F)cc2)CC1` [Example 12, N-Hydroxy-2-[[4-[4-(trifluoromethoxy)phenoxy]-1-piperidinyl]sulfonyl]benzamide] had an IC50 of 0.0022 µM. As for `COc1ccc(S(=O)(=O)Cc2ccccc2C(=O)NO)cc1` [Example 6], the IC50 at MMP-13 (Inhibition Table A) was 4 µM; against MMP-1 (Inhibition Table A), over 10 µM.
